Patent US12257287B2, “Glucagon-derived peptide and use thereof” (Tianjin Institute of Pharmaceutical Research Co., Ltd., priority 2018, dated 2025)
Numbered stars: 1 amine (or outer) side, 2 acyl side, 3 side chain; on linkers, the order of the positions; unused ones are H or OH. Square brackets hold non-standard residues; d marks the D form. Side chains are listed from the residue outwards. Peptide text beside a SMILES is read from it. * marks the point of attachment. C18 diacid = O=C(O)CCCCCCCCCCCCCCCCC(=O)*; γGlu = O=C(O)[C@H](CCC(=O)[*:2])N[*:1]; AEEA = NCCOCCOCC(=O)O; Aib = CC(C)(N)C(=O)O

How the values were obtained:
GC receptor = biological target: T1, GC receptor (Homo sapiens, UniProt P47871); assay: GC receptor mediated cAMP production in vitro (HEK293 cells transfected with GC receptor); type: cell-based; conditions: 20 min at 37° C., read-out: GCGR (nM EC50)
T1 construct: expressed in transfected cells; host or cells: HEK293 cells
Description: The medium was removed, the cells were lysed, and cAMP values were detected referring to the detection method described for the assay kit.

physchem = type: physicochemical; conditions: pH 7.5, Solubility
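Throughout, for Solubility: compound added at 2 mg per mL of phosphate buffer, with the dissolved amount determined in the supernatant.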

T1 sequence (P47871 26-477): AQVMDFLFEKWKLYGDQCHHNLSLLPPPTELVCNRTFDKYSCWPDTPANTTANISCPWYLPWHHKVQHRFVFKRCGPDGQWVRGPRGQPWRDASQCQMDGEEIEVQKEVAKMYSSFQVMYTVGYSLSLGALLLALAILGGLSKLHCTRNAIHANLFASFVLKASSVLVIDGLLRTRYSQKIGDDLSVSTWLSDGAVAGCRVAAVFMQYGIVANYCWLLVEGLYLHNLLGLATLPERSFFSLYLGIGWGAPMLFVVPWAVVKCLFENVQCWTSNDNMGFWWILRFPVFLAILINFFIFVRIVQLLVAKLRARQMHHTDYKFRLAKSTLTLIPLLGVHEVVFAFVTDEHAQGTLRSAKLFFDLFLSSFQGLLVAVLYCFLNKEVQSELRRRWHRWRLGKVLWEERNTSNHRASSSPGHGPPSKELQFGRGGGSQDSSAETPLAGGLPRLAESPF

EC50 (GC receptor) [nM]	solubility (physchem; pH 7.5, 10 mM phosphate buffer) [µg/mL]	solubility (physchem; pH 7.5, 20 mM phosphate buffer) [µg/mL]	Structure (SMILES)
0.048	–	–	CC[C@H](C)[C@H](NC(=O)[C@H](Cc1ccccc1)NC(=O)[C@H](CCC(=O)O)NC(=O)[C@H](CCCCNC(=O)COCCOCCNC(=O)COCCOCCNC(=O)CC[C@H](NC(=O)CCCCCCCCCCCCCCCCC(=O)O)C(=O)O)NC(=O)[C@H](C)NC(=O)[C@H](CCCNC(=N)N)NC(=O)[C@H](CCCCN)NC(=O)[C@H](CCC(=O)O)NC(=O)[C@H](CC(=O)O)NC(=O)[C@H](CC(C)C)NC(=O)[C@H](Cc1ccc(O)cc1)NC(=O)[C@H](CCCCN)NC(=O)[C@H](CO)NC(=O)[C@H](Cc1ccc(O)cc1)NC(=O)[C@H](CC(=O)O)NC(=O)[C@H](CO)NC(=O)[C@@H](NC(=O)[C@H](Cc1ccccc1)NC(=O)[C@@H](NC(=O)CNC(=O)[C@H](CCC(N)=O)NC(=O)C(C)(C)NC(=O)[C@@H](N)Cc1c[nH]cn1)[C@@H](C)O)[C@@H](C)O)C(=O)N[C@@H](C)C(=O)N[C@@H](Cc1c[nH]c2ccccc12)C(=O)N[C@@H](CC(C)C)C(=O)N[C@@H](CCC(=O)O)C(=O)N[C@@H](C)C(=O)NCC(=O)NCC(=O)N1CCC[C@H]1C(=O)N[C@@H](CO)C(=O)N[C@@H](CO)C(=O)NCC(N)=O [Compound 50] (H-H[Aib]QGTFTSDYSKYLDEKRAK([AEEA-AEEA-γGlu-C18 diacid])EFIAWLEAGGPSSG-NH2; N-terminus assumed)
0.191	–	–	CCCCCCCCCCCCCCCC(=O)N[C@@H](CCC(=O)N[C@@H](CCC(=O)NCCCC[C@H](NC(=O)[C@H](C)NC(=O)[C@H](CCCNC(=N)N)NC(=O)[C@H](CCCCN)NC(=O)[C@H](CCC(=O)O)NC(=O)[C@H](CCC(=O)O)NC(=O)[C@H](CC(C)C)NC(=O)[C@H](Cc1ccc(O)cc1)NC(=O)[C@H](CCCCN)NC(=O)[C@H](CO)NC(=O)[C@H](Cc1ccc(O)cc1)NC(=O)[C@H](CC(=O)O)NC(=O)[C@H](CO)NC(=O)[C@@H](NC(=O)[C@H](Cc1ccccc1)NC(=O)[C@@H](NC(=O)CNC(=O)[C@H](CCC(N)=O)NC(=O)C(C)(C)NC(=O)[C@@H](N)Cc1c[nH]cn1)[C@@H](C)O)[C@@H](C)O)C(=O)N[C@@H](CCC(=O)O)C(=O)N[C@@H](Cc1ccccc1)C(=O)N[C@H](C(=O)N[C@@H](CCC(=O)O)C(=O)N[C@@H](Cc1c[nH]c2ccccc12)C(=O)N[C@@H](CC(C)C)C(=O)N[C@@H](CCC(=O)O)C(=O)NCC(=O)NCC(=O)N1CCC[C@H]1C(=O)N[C@@H](CO)C(=O)N[C@@H](CO)C(=O)NCC(N)=O)C(C)C)C(=O)O)C(=O)O [Compound 76] (HELM PEPTIDE1{H.[Aib].Q.G.T.F.T.S.D.Y.S.K.Y.L.E.E.K.R.A.K.E.F.V.E.W.L.E.G.G.P.S.S.G.[am]}|PEPTIDE2{[CCCCCCCCCCCCCCCC(=O)[*:2]].[gGlu].[gGlu]}$PEPTIDE1,PEPTIDE2,20:R3-3:R2$$$V2.0; N-terminus assumed)
1.73	–	–	CCCCCCCCCCCCCCCC(=O)N[C@@H](CCC(=O)N[C@@H](CCC(=O)NCCCC[C@H](NC(=O)[C@H](CC(=O)O)NC(=O)[C@H](CO)NC(=O)[C@@H](NC(=O)[C@H](Cc1ccccc1)NC(=O)[C@@H](NC(=O)CNC(=O)[C@H](CCC(N)=O)NC(=O)C(C)(C)NC(=O)[C@@H](N)Cc1c[nH]cn1)[C@@H](C)O)[C@@H](C)O)C(=O)N[C@@H](CO)C(=O)N[C@@H](CCCCN)C(=O)N[C@@H](Cc1ccc(O)cc1)C(=O)N[C@@H](CC(C)C)C(=O)N[C@@H](CCC(=O)O)C(=O)N[C@@H](CCC(=O)O)C(=O)N[C@@H](CCCCN)C(=O)N[C@@H](CCCNC(=N)N)C(=O)N[C@@H](C)C(=O)N[C@@H](CCCCN)C(=O)N[C@@H](CCC(=O)O)C(=O)N[C@@H](Cc1ccccc1)C(=O)N[C@H](C(=O)N[C@@H](CCC(=O)O)C(=O)N[C@@H](Cc1c[nH]c2ccccc12)C(=O)N[C@@H](CC(C)C)C(=O)N[C@@H](CCC(=O)O)C(=O)N[C@@H](C)C(=O)NCC(=O)NCC(=O)N1CCC[C@H]1C(=O)N[C@@H](CO)C(=O)N[C@@H](CO)C(=O)NCC(N)=O)[C@@H](C)CC)C(=O)O)C(=O)O [Compound 11] (HELM PEPTIDE1{H.[Aib].Q.G.T.F.T.S.D.K.S.K.Y.L.E.E.K.R.A.K.E.F.I.E.W.L.E.A.G.G.P.S.S.G.[am]}|PEPTIDE2{[CCCCCCCCCCCCCCCC(=O)[*:2]].[gGlu].[gGlu]}$PEPTIDE1,PEPTIDE2,10:R3-3:R2$$$V2.0; N-terminus assumed)
0.316	–	–	CC(C)C[C@H](NC(=O)[C@H](Cc1c[nH]c2ccccc12)NC(=O)[C@H](C)NC(=O)[C@@H](NC(=O)[C@H](Cc1ccccc1)NC(=O)[C@H](CCC(=O)O)NC(=O)[C@H](CCCCNC(=O)COCCOCCNC(=O)COCCOCCNC(=O)CC[C@H](NC(=O)CCCCCCCCCCCCCCCCC(=O)O)C(=O)O)NC(=O)[C@H](C)NC(=O)[C@H](CCCNC(=N)N)NC(=O)[C@H](CCCCN)NC(=O)[C@H](CCC(=O)O)NC(=O)[C@H](CCC(=O)O)NC(=O)[C@H](CC(C)C)NC(=O)[C@H](Cc1ccc(O)cc1)NC(=O)[C@H](CCCCN)NC(=O)[C@H](CO)NC(=O)[C@H](Cc1ccc(O)cc1)NC(=O)[C@H](CC(=O)O)NC(=O)[C@H](CO)NC(=O)[C@@H](NC(=O)[C@H](Cc1ccccc1)NC(=O)[C@@H](NC(=O)CNC(=O)[C@H](CCC(N)=O)NC(=O)C(C)(C)NC(=O)[C@@H](N)Cc1c[nH]cn1)[C@@H](C)O)[C@@H](C)O)C(C)C)C(=O)N[C@@H](CCC(=O)O)C(=O)N[C@@H](C)C(=O)NCC(=O)NCC(=O)N1CCC[C@H]1C(=O)N[C@@H](CO)C(=O)N[C@@H](CO)C(=O)NCC(N)=O [Compound 53] (H-H[Aib]QGTFTSDYSKYLEEKRAK([AEEA-AEEA-γGlu-C18 diacid])EFVAWLEAGGPSSG-NH2; N-terminus assumed)
0.148	–	–	CCCCCCCCCCCCCCCC(=O)N[C@@H](CCC(=O)N[C@@H](CCC(=O)NCCCC[C@H](NC(=O)[C@H](C)NC(=O)[C@H](C)NC(=O)[C@H](CCCNC(=N)N)NC(=O)[C@H](CCC(=O)O)NC(=O)[C@H](CC(=O)O)NC(=O)[C@H](CC(C)C)NC(=O)[C@H](Cc1ccc(O)cc1)NC(=O)[C@H](CCCCN)NC(=O)[C@H](CO)NC(=O)[C@H](Cc1ccc(O)cc1)NC(=O)[C@H](CC(=O)O)NC(=O)[C@H](CO)NC(=O)[C@@H](NC(=O)[C@H](Cc1ccccc1)NC(=O)[C@@H](NC(=O)CNC(=O)[C@H](CCC(N)=O)NC(=O)C(C)(C)NC(=O)[C@@H](N)Cc1c[nH]cn1)[C@@H](C)O)[C@@H](C)O)C(=O)N[C@@H](CCC(=O)O)C(=O)N[C@@H](Cc1ccccc1)C(=O)N[C@H](C(=O)N[C@@H](C)C(=O)N[C@@H](Cc1c[nH]c2ccccc12)C(=O)N[C@@H](CC(C)C)C(=O)N[C@@H](CCC(=O)O)C(=O)N[C@@H](C)C(=O)NCC(=O)NCC(=O)N1CCC[C@H]1C(=O)N[C@@H](CO)C(=O)N[C@@H](CO)C(=O)NCC(N)=O)C(C)C)C(=O)O)C(=O)O [Compound 15] (HELM PEPTIDE1{H.[Aib].Q.G.T.F.T.S.D.Y.S.K.Y.L.D.E.R.A.A.K.E.F.V.A.W.L.E.A.G.G.P.S.S.G.[am]}|PEPTIDE2{[CCCCCCCCCCCCCCCC(=O)[*:2]].[gGlu].[gGlu]}$PEPTIDE1,PEPTIDE2,20:R3-3:R2$$$V2.0; N-terminus assumed)
0.077	–	–	CC(C)C[C@H](NC(=O)[C@H](Cc1c[nH]c2ccccc12)NC(=O)[C@H](CCC(=O)O)NC(=O)[C@@H](NC(=O)[C@H](Cc1ccccc1)NC(=O)[C@H](CCC(=O)O)NC(=O)[C@H](CCCCNC(=O)COCCOCCNC(=O)COCCOCCNC(=O)CC[C@H](NC(=O)CCCCCCCCCCCCCCCCC(=O)O)C(=O)O)NC(=O)[C@H](C)NC(=O)[C@H](C)NC(=O)[C@H](CCCNC(=N)N)NC(=O)[C@H](CCC(=O)O)NC(=O)[C@H](CCC(=O)O)NC(=O)[C@H](CC(C)C)NC(=O)[C@H](Cc1ccc(O)cc1)NC(=O)[C@H](CCCCN)NC(=O)[C@H](CO)NC(=O)[C@H](Cc1ccc(O)cc1)NC(=O)[C@H](CC(=O)O)NC(=O)[C@H](CO)NC(=O)[C@@H](NC(=O)[C@H](Cc1ccccc1)NC(=O)[C@@H](NC(=O)CNC(=O)[C@H](CCC(N)=O)NC(=O)C(C)(C)NC(=O)[C@@H](N)Cc1c[nH]cn1)[C@@H](C)O)[C@@H](C)O)C(C)C)C(=O)N[C@@H](CCC(=O)O)C(=O)NCC(=O)NCC(=O)N1CCC[C@H]1C(=O)N[C@@H](CO)C(=O)N[C@@H](CO)C(=O)NCC(N)=O [Compound 32] (H-H[Aib]QGTFTSDYSKYLEERAAK([AEEA-AEEA-γGlu-C18 diacid])EFVEWLEGGPSSG-NH2; N-terminus assumed)
–	> 2000	> 2000	CC(C)C[C@H](NC(=O)[C@H](Cc1c[nH]c2ccccc12)NC(=O)[C@H](C)NC(=O)[C@@H](NC(=O)[C@H](Cc1ccccc1)NC(=O)[C@H](CCC(=O)O)NC(=O)[C@H](CCCCN)NC(=O)[C@H](C)NC(=O)[C@H](C)NC(=O)[C@H](CCCNC(=N)N)NC(=O)[C@H](CCC(=O)O)NC(=O)[C@H](CC(=O)O)NC(=O)[C@H](CC(C)C)NC(=O)[C@H](Cc1ccc(O)cc1)NC(=O)[C@H](CCCCN)NC(=O)[C@H](CO)NC(=O)[C@H](CCCCNC(=O)COCCOCCNC(=O)COCCOCCNC(=O)CC[C@H](NC(=O)CCCCCCCCCCCCCCCCC(=O)O)C(=O)O)NC(=O)[C@H](CC(=O)O)NC(=O)[C@H](CO)NC(=O)[C@@H](NC(=O)[C@H](Cc1ccccc1)NC(=O)[C@@H](NC(=O)CNC(=O)[C@H](CCC(N)=O)NC(=O)C(C)(C)NC(=O)[C@@H](N)Cc1c[nH]cn1)[C@@H](C)O)[C@@H](C)O)C(C)C)C(=O)N[C@@H](CCC(=O)O)C(=O)N[C@@H](C)C(=O)NCC(=O)NCC(=O)N1CCC[C@H]1C(=O)N[C@@H](CO)C(=O)N[C@@H](CO)C(=O)NCC(N)=O [Compound 24] (H-H[Aib]QGTFTSDK([AEEA-AEEA-γGlu-C18 diacid])SKYLDERAAKEFVAWLEAGGPSSG-NH2)
